Data as given in ChEMBL document CHEMBL1614632, “Trend analysis of a database of intravenous pharmacokinetic parameters in humans for 670 drug compounds” (Drug Metab Dispos, 2008).

Columns and labels:
clinical [1] = conditions: human, in vivo, iv, CL
clinical [2] = conditions: human, in vivo, iv
clinical [3] = conditions: human, in vivo, iv; remark: listed apart in the source
clinical [4] = conditions: human, in vivo, iv, t1/2
clinical [5] = conditions: human, in vivo, iv, Vdss

Structure (SMILES)	clearance (clinical [1]) [mL/min/kg]	fraction unbound (clinical [2])	MRT (clinical [3]) [h]	half-life (clinical [4]) [h]	Vd (clinical [5]) [L/kg]
CCCCC(=O)N(Cc1ccc(-c2ccccc2-c2nnn[nH]2)cc1)[C@H](C(=O)O)C(C)C	0.49	0.04	7.5	9.5	–
COc1ccc(C[C@@H]2c3cc(OC)c(OC)cc3CC[N@+]2(C)CCC(=O)OCCCCCOC(=O)CC[N@@+]2(C)CCc3cc(OC)c(OC)cc3[C@H]2Cc2ccc(OC)c(OC)c2)cc1OC	5.4	0.62	0.43	0.42	0.14
CN[C@@H]1C[C@H]2O[C@@](C)([C@@H]1OC)n1c3ccccc3c3c4c(c5c6ccccc6n2c5c31)C(=O)N[C@@H]4O	0.0037	0.0022	680	790	0.15
C[C@@H](O)[C@H]1C(=O)N2C(C(=O)O)=C(S[C@@H]3CN[C@H](C(=O)Nc4cccc(C(=O)O)c4)C3)[C@H](C)[C@H]12	0.45	0.1	4.4	3.8	0.12
COc1ccc(CC2c3cc(OC)c(OC)cc3CC[N+]2(C)CCC(=O)OCCCCCOC(=O)CC[N+]2(C)CCc3cc(OC)c(OC)cc3C2Cc2ccc(OC)c(OC)c2)cc1OC (stereo not drawn)	5.7	0.52	0.29	0.31	0.1
C#C[C@]1(O)CC[C@H]2[C@@H]3CCc4cc(OS(=O)(=O)O)ccc4[C@H]3CC[C@@]21C	4.7	0.011	8.2	8.4	2.3
COc1cc2c3cc1Oc1cc(ccc1O)C[C@@H]1c4c(cc(OC)c(O)c4Oc4ccc(cc4)C[C@@H]3N(C)CC2)CC[N+]1(C)C.[Cl-]	3.4	0.58	2.2	2	0.45
CO/N=C(\C(=O)N[C@@H]1C(=O)N2C(C(=O)O)=C(C)CS[C@H]12)c1csc(N)n1	1.9	0.78	2.5	2.1	0.28
CN(C)C(=O)CCS[C@H](SCCC(=O)O)c1cccc(/C=C/c2ccc3ccc(Cl)cc3n2)c1	0.68	0.0004	2.7	2.3	0.11
C=C[C@@]1(O)C[N+]2(C)CC[C@H]1C[C@@H]2[C@@H](O)c1ccnc2ccc(OC)cc12	12	0.47	9.4	6.7	6.8
CCCCCCCCCC(=O)N[C@@H](Cc1c[nH]c2ccccc12)C(=O)N[C@H](CC(N)=O)C(=O)N[C@@H](CC(=O)O)C(=O)N[C@@H]1C(=O)NCC(=O)N[C@@H](CCCN)C(=O)N[C@@H](CC(=O)O)C(=O)N[C@H](C)C(=O)N[C@@H](CC(=O)O)C(=O)NCC(=O)N[C@H](CO)C(=O)N[C@@H]([C@H](C)CC(=O)O)C(=O)N[C@@H](CC(=O)c2ccccc2N)C(=O)O[C@@H]1C	0.16	0.083	9.2	8.1	0.088
Cc1cccc(C)c1NC(=O)NCCCNC(C)C	4.5	0.86	5.2	5	–
Nc1nc(N)c2nc(-c3ccccc3)c(N)nc2n1	63	0.42	3.4	4.3	13
N[C@@H](Cc1ccc(N(CCCl)CCCl)cc1)C(=O)O	7	0.14	1.1	–	0.48
C=C1CC[C@@]2(O)[C@H]3Cc4ccc(O)c5c4[C@@]2(CCN3CC2CC2)[C@H]1O5	15	0.65	9.1	8.8	8.2
CN(C)CCCN1c2ccccc2CCc2cc(O)ccc21 [2-HYDROXYIMIPRAMINE]	9.2	0.36	12	10	6.6
CC[C@@]1(O)C(=O)OCc2c1cc1n(c2=O)Cc2cc3c(N)cccc3nc2-1 [9-AMINOCAMPTOTHECIN]	6.5	0.003	5.6	7	2.2
CC(C)=CCN1CC[C@]2(C)c3cc(O)ccc3C[C@H]1[C@H]2C [(+)-PENTAZOCINE]	23	0.39	2.5	–	3.4
Nc1nc(NC2CC2)c2ncn([C@H]3C=C[C@@H](CO)C3)c2n1 [ABACAVIR]	13	0.5	1.1	1	0.84
CN1CCc2cccc3c2[C@H]1Cc1ccc(O)c(O)c1-3 [APOMORPHINE]	40	0.057	–	–	1.6

Structure (SMILES)	clearance (clinical [1]) [mL/min/kg]	fraction unbound (clinical [2])	MRT (clinical [3]) [h]	half-life (clinical [4]) [h]	Vd (clinical [5]) [L/kg]
CN1CCCC(n2nc(Cc3ccc(Cl)cc3)c3ccccc3c2=O)CC1 (stereo not drawn) [AZELASTINE]	9	0.17	27	22	–
CCc1cccc2cc(C(O)CNC(C)(C)C)oc12 (stereo not drawn) [BUFURALOL]	8.9	0.19	3.18	2.3	–
CC[C@H](C)C[C@H](C)CCCCCCCCC(=O)N[C@H]1C[C@@H](O)[C@@H](NCCN)NC(=O)[C@@H]2[C@@H](O)CCN2C(=O)[C@H]([C@H](O)CCN)NC(=O)[C@H]([C@H](O)[C@@H](O)c2ccc(O)cc2)NC(=O)[C@@H]2C[C@@H](O)CN2C(=O)[C@H]([C@@H](C)O)NC1=O [CASPOFUNGIN]	0.14	0.035	15	–	0.13
CO[C@@]1(NC(=O)C2SC(=C(C(N)=O)C(=O)O)S2)C(=O)N2C(C(=O)O)=C(CSc3nnnn3C)CS[C@@H]21 (stereo partly drawn) [CEFOTETAN]	0.42	0.15	5.2	4.5	–
CC(C)(O/N=C(\C(=O)N[C@@H]1C(=O)N2C(C(=O)[O-])=C(C[n+]3ccccc3)CS[C@H]12)c1csc(N)n1)C(=O)O [CEFTAZIDIME]	2.4	0.79	2.2	–	0.31
COc1ccc2c3c1O[C@H]1[C@@H](O)C=C[C@H]4[C@@H](C2)N(C)CC[C@@]341 [CODEINE]	15	0.7	3.9	4	–
CC/C=C\C/C=C\C/C=C\C/C=C\C/C=C\C/C=C/CCC(=O)O[C@@H](C(=O)O[C@H]1C[C@@]2(O)[C@@H](OC(=O)c3ccccc3)C3[C@](C)(C(=O)[C@H](OC(C)=O)C(=C1C)C2(C)C)[C@@H](O)C[C@H]1OC[C@@]31OC(C)=O)[C@@H](NC(=O)c1ccccc1)c1ccccc1 (stereo partly drawn) [DHA PACLITAXEL]	0.025	0.0038	45	60	–
CC(=O)Nc1c(I)c(NC(C)=O)c(I)c(C(=O)O)c1I [DIATRIZOIC ACID]	1.7	1	2.6	–	–
C[C@H]1O[C@@H](O[C@H]2[C@@H](O)C[C@H](O[C@H]3[C@@H](O)C[C@H](O[C@H]4CC[C@@]5(C)[C@H](CC[C@@H]6[C@@H]5CC[C@]5(C)[C@@H](C7=CC(=O)OC7)CC[C@]65O)C4)O[C@@H]3C)O[C@@H]2C)C[C@H](O)[C@@H]1O [DIGITOXIN]	0.043	0.066	170	–	0.44
Cc1onc(-c2c(F)cccc2Cl)c1C(=O)N[C@@H]1C(=O)N2[C@@H]1SC(C)(C)[C@@H]2C(=O)O [FLOXACILLIN]	2.4	0.043	1.3	–	0.19
CC#CCC(C)[C@H](O)/C=C/[C@@H]1[C@H]2C/C(=C/CCCC(=O)O)C[C@H]2C[C@H]1O (stereo partly drawn) [ILOPROST]	16	0.4	–	0.57	0.37
CN[C@@H]1[C@@H](O)[C@@H](O[C@@H]2[C@@H](O)[C@H](O[C@H]3O[C@H](CN)[C@@H](O)[C@H](O)[C@H]3O)[C@@H](N)C[C@H]2NC(=O)[C@@H](O)CN)OC[C@]1(C)O [ISEPAMICIN]	1.3	0.95	4.1	24	–
NNC(=O)c1ccncc1 [ISONIAZID]	7.4	1	1.8	–	0.82
CC[C@H](OC(C)=O)C(C[C@H](C)N(C)C)(c1ccccc1)c1ccccc1 [LEVOMETHADYL ACETATE]	5.4	0.2	26	–	8.3
COc1ccc2c3c1O[C@H]1C(=O)CC[C@@]4(O)[C@@H](C2)N(C)CC[C@]314 [OXYCODONE]	6.1	0.55	6.8	5.5	–
CCC[C@H](N[C@@H](C)C(=O)N1[C@H](C(=O)O)C[C@@H]2CCCC[C@@H]21)C(=O)O [PERINDOPRILAT]	1.7	0.16	7.6	29	–
NC(=O)c1ncn([C@@H]2O[C@H](CO)[C@@H](O)[C@H]2O)n1 [RIBAVIRIN]	5.2	1	45	45	–
CCCCCCCCCCNCCN[C@@]1(C)C[C@H](O[C@H]2[C@H](Oc3c4cc5cc3Oc3ccc(cc3Cl)[C@@H](O)[C@@H](NC(=O)[C@@H](CC(C)C)NC)C(=O)N[C@@H](CC(N)=O)C(=O)N[C@H]5C(=O)N[C@H]3C(=O)N[C@H](C(=O)N[C@H](C(=O)O)c5cc(O)c(CNCP(=O)(O)O)c(O)c5-c5cc3ccc5O)[C@H](O)c3ccc(c(Cl)c3)O4)O[C@H](CO)[C@@H](O)[C@@H]2O)O[C@@H](C)[C@H]1O [TELAVANCIN]	0.2	0.07	9.2	6.7	–
COc1ccccc1Oc1c(NS(=O)(=O)c2ccc(C(C)C)cn2)nc(-c2ccnc(-c3nnn[nH]3)c2)nc1OCCO [TEZOSENTAN]	8.1	0.0085	–	3.8	0.28
Nc1n[n+]([O-])c2ccccc2[n+]1[O-] [TIRAPAZAMINE]	8.9	0.81	1	–	0.56
